Experimental findings from patent publication US12583861B2, “Derivatives of imidazo[4,5-d]pyridazine, their preparation and their therapeutic application” (SANOFI, priority 2021, dated 2026) are described below.

Type in all cases: cell-based
The target in one assay is T1, human TLR7 (Homo sapiens, UniProt Q9NYK1).
T1 construct: host or cells: HEK293 (HEK-Blue hTLR7)
T1 sequence (Q9NYK1 27-1049): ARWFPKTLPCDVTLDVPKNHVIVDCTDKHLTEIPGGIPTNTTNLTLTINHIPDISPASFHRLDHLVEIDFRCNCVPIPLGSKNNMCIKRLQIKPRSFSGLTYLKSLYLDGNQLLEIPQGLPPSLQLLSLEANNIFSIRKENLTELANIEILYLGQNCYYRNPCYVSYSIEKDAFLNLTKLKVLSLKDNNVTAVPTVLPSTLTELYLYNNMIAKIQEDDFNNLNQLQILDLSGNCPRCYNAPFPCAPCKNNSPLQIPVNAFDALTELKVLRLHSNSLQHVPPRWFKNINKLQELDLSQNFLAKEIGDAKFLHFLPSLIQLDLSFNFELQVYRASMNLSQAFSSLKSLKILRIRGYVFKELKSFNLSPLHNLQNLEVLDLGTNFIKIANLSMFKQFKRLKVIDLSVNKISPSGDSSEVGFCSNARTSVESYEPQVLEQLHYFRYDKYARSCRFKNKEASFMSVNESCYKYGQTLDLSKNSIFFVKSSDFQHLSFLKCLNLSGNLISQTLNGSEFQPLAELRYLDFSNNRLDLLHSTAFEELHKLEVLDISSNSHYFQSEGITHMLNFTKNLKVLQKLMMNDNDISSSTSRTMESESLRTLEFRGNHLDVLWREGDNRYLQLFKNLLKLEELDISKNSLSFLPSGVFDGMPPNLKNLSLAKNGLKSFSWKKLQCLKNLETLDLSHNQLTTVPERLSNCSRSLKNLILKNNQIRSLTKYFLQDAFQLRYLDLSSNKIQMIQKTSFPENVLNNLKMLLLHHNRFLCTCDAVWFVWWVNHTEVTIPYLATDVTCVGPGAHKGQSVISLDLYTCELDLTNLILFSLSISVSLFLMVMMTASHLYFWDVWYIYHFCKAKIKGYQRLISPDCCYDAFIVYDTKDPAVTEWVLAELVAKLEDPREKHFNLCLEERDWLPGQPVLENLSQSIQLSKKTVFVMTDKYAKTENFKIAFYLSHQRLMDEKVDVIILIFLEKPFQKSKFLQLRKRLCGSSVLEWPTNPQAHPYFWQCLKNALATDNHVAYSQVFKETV
The assay is described as follows: HEK-Blue hTLR7 reporter cell assay (SEAP, NF-kB/AP-1) for stimulation of human TLR7. Particulars: HEK-Blue hTLR7 cells, 24 h incubation, SEAP readout; read-out: TLR7_EC50. The procedure, abridged: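 Activity expressed as EC50 for half-maximal SEAP induction. Compounds, serially diluted 3-fold from 20 to 0.01 μM, were incubated 24 h at 37 °C, 5% CO2 with HEK-Blue hTLR7 reporter cells (3.10E4/well, plated 18–24 h earlier); supernatant developed with QUANTI-Blue.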

The next assay has as its system IL-6. The assay is described as follows: IL-6 cytokine activation in human PBMC (MSD assay). The note with it: Homo sapiens, PBMC, 24 h, read-out: IL6 EC50.
A further assay has as its system IL29. The assay is described as follows: IL29 cytokine activation in human PBMC (MSD assay). The note with it: Homo sapiens, PBMC, 24 h.

Take `CCCCc1nc2c(N)nnc(N(C)C)c2n1C` [Compound 41, 2-butyl-N7,N7,1-trimethyl-1H-imidazo[4,5-d]pyridazine-4,7-diamine]: the EC50 on human TLR7 is 3.07 µM; with IL-6 it was 1.28 µM; in the assay with IL29, 3.04 µM.
